Counter-ions that a name gives are not always drawn.

As usually defined, the melting point is the temperature, or range, at which the solid turns liquid.

As for `CC(=O)NC1NCC(CO)C(O)C1O` (stereo not drawn) (as salt: hydrochloride) [Formula (V), 3-decarboxy-4-epi-3-hydroxymethyl-siastain B], the melting point is 201 to 202 °C (dec.).
Then `O=C(N[C@H]1NC[C@H](CO)[C@@H](O)[C@@H]1O)C(F)(F)F` (as salt: hydrochloride) [Formula (X), 6-deacetamido-3-decarboxy-4-epi-3-hydroxymethyl-6-trifluoroacetamido-siastain B], with 88 to 90 °C.

For the origin of these results see patent US6852735B1, “Siastatin B derivatives having a glycosidase inhibitory activity and processes for producing the same” (Zaidan Hojin Biseibutsu Kagaku Kenkyu Kai, priority 1998, dated 2005).
